This note sets out measurements from patent EP0292023A2, “Pyrimidine derivatives” (F. HOFFMANN-LA ROCHE AG, priority 1987, dated 1988).

Test [1] deals with Schaf-Lentiviren des Stammes WLC-1. In words: Activity against sheep lentivirus (protection from cytopathic effect in SCP cells). As to conditions: minimal concentration giving 100% protection from cytopathic effect, 12 days incubation at 37°C, crystal violet staining, visual reading. In kind it is cell-based. From the text: (A) Aktivität gegen Schaf-Lentiviren
In diesem Versuch verwendet man Schaf-Lentiviren des Stammes WLC-1, der im Plexus chorioideus (SCP) des Schafs mit 10% fötalem Rinderserum enthaltenden Medium gezüchtet wurde. Die Verbindungen werden in 96 Vertiefungen enthaltenden Platten getestet. Jede Vertiefung enthält 10⁴SCP-Zellen, die 48 Stunden inkubiert wurden. Die Testverbindungen werden, gelöst in Dimethylsulfoxid (DMSO), bis zu einer Endkonzentration von 1% DMSO hinzugefügt, zusammen mit einem Virus-Inokulum, das innert 12 Tagen einen 100%igen cytopathischen Effekt bewirkt. Nach 12-tägiger Inkubation bei 37°C werden die Platten mit Kristallviolett angefärbt. Effekt in den die Testverbindungen enthaltenden Vertiefungen wird visuell durch Vergleich mit lediglich den Virus enthaltenden Vertiefungen und nicht-infizierten Vertiefungen ermittelt. Die Wirksamkeit (MPC) ist die minimale Konzentration der Testverbindung, die einen 100%igen Schutz bewirkt. In diesem Versuch hat DFAC einen MPC von 2,5 µM.

In test [2] the test system is HTLV III (Stamm RF). The experiment in a line: Activity against HIV (p24 antigen capture assay in infected C8166 cells). It is filed as cell-based. As to conditions: concentration giving 50% protection; C8166 cells infected with 10-fold TCD₅₀, 72 h incubation at 37°C, viral protein 24 antigen in supernatant; read-out: IC₅₀. The protocol:
(B) Wirksamkeit gegen HIV
In diesem Versuch verwendet man HTLV III (Stamm RF), gezüchtet in C8166-Zellen (eine menschliche CD4⁺ T-Lymphoblastenlinie), RPM1 1640 Medium mit Bicarbonatpuffer, Antibiotika und 10%igem fötalem Rinderserum. Eine Zellensuspen sion wird mit der 10-fachen TCD₅₀ des Virus infiziert. Man lässt 90 Minuten bei 37°C adsorbieren. Die Zellen werden mit dem Medium gewaschen. Der Versuch wird in 6 ml Gewebekulturröhren durchgeführt. Jedes Rohr enthalt 2 x 10⁵ infizierte Zellen in 1,5 ml Medium. Es werden 15 µl einer Lösung der Substanz in wässrigem Medium oder in DMSO zugesetzt. Nach 72 Stunden Inkubation bei 37°C in einer feuchten 5% CO₂ enthaltenden Atmosphäre werden die Kulturen zentrifugiert. Ein aliquoter Teil des Ueberstandes wird solubilisiert und einem Antigenabfangversuch unterworfen unter Verwendung eines primären Antiserums mit besonderer Reaktivität gegen virales Protein 24 und eines Meerrettich-Peroxidase-Detektionssystems. Die Farbenerzeugung wird spektrophotometrisch gemessen und in Abhängigkeit der Konzentration der Testsubstanz dargestellt. Die einen 50%igen Schutz erzeugende Konzentration (IC₅₀) wird ermittelt. In diesem Test hat DFAC ein IC₅₀ von 1 µM.

On to `Nc1ccn([C@@H]2O[C@H](CO)C[C@@H]2F)c(=O)n1` [DFAC, 1-(2′,3′-Dideoxy-2′-fluor-b-D-arabinofuranosyl)cytosin], for which, in test [1], the MPC is recorded as 2,5 µM. Further, the IC50 in test [2] stood at 1000 nM.
